From patent publication US12122761B2, “2-azaspiro[3.4]octane derivatives as M4 agonists” (NOVARTIS AG, priority 2019, dated 2024)
Read-outs that look alike come from different tables or passages of the source.

Columns and labels:
[1] = molecular target: T1, human cloned CHRM4 receptor (M4_CHO cells) (Homo sapiens, UniProt P08173); assay: CHRM4 Ca++ Flux Assay (agonist mode, FDSS 7000EX); format: cell-based; conditions: for M4 FDSS PA: Percent Activity; for EC50: geometric mean if tested more than once, read-out: M4 FDSS EC50
T1 construct: expressed in transfected cells; host or cells: CHO-K1
T1 sequence (P08173 1-479): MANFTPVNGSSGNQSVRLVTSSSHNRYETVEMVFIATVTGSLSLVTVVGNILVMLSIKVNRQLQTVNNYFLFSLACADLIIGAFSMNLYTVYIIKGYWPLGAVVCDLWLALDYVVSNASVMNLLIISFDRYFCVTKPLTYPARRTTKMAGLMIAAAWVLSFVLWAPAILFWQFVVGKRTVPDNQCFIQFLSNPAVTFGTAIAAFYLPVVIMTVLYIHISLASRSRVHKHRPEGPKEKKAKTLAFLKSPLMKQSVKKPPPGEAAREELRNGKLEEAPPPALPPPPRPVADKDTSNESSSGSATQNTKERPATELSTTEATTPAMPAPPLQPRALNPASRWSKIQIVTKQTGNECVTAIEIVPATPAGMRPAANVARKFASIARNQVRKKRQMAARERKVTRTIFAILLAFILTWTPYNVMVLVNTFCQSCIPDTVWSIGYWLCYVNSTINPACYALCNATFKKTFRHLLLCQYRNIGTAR
Procedure: (§1) The above examples were characterized by measuring the intracellular mobilization of Ca++ ions caused by signaling events mediated by the receptor. The Intra-cellular Calcium flux levels were captured by the highly sensitive Ca++ indicator, Calcium Assay Kit (BD Biosciences, Catalog Number 640178). The fluorescent activity from all receptors were monitored by the fluorescent imager, FDSS 7000EX (Hamamatsu) over a span of 3 minutes.
CHO-K1 cells stably expressing the human cloned CHRM4 receptor (M4_CHO cells) were grown and maintained in a monolayer culture with F12/HAM (Life Technologies) supplemented with 10% Fetal Bovine Serum, 1× Pen-Strep, and 0.4 mg/mL Geneticin in a humidified atmosphere (5% CO2) at 37° C. The cultures were grown to 80-90% confluency in T150 flasks (Corning) and washed with 1×DPBS then lifted with 0.05% Trypsin (Life Technologies). The cells were harvested in growth media then spun (1K rpm, 3 minutes) and cryopreserved using Recovery Cell Culture Freezing Media (Gibco Technologies). Cells were stored in liquid nitrogen and thawed a day before the assay.
Prior to the day of the assay, stable M4_CHO cells were thawed and plated on 384 well black walled clear bottom TC treated plates (Greiner Cat #781091) at 12K cells/well using F12/HAM Media supplemented with 10% FBS (Life Technologies) and kept overnight in a humidified atmosphere (5% CO2) at 37° C. The next day, cells were loaded with […] Ca^++ dye (BD Biosciences) using Loading Buffer (HBSS +Ca/+Mg, 20 mM HEPES, 2.5 mM Probenecid) and placed back in cell incubator for a minimum of 1 hour. After incubation, the dye was replaced with 45 μL Assay Buffer (HBSS −Ca/−Mg, 20 mM HEPES, 2.5 mM Probenecid) supplemented with 20 μM ATP (Sigma Aldrich) and kept at room temperature in the dark for 60 minutes before running on a cell imager. The FDSS 7000EX (Hamamatsu) was used to capture Ca^++ traces for a span of 3 minutes from cells treated with 11 point dose of compound in triplicate in order to generate dose response curves in agonist mode. All compounds were serially diluted in DMSO then prepared in Assay Buffer for Ca^++ flux studies. The dose response curves were generated from the average of triplicate wells obtained from each data point and used a non-linear regression of four parameter dose response algorithm. The Percent Activity (PA) was measured to EC100 of Carbachol.

[2] = molecular target: T2, Cloned human M1 receptor (CHRM1) stably expressed in HEK293 cells (Homo sapiens, UniProt P11229); assay: CHRM1 Ca++ Flux Assay (agonist mode, FDSS 7000EX); format: cell-based; conditions: for M1 FDSS PA: Percent Activity; for EC50: geometric mean if tested more than once
T2 construct: expressed in transfected cells; host or cells: HEK293
T2 sequence (P11229 1-460): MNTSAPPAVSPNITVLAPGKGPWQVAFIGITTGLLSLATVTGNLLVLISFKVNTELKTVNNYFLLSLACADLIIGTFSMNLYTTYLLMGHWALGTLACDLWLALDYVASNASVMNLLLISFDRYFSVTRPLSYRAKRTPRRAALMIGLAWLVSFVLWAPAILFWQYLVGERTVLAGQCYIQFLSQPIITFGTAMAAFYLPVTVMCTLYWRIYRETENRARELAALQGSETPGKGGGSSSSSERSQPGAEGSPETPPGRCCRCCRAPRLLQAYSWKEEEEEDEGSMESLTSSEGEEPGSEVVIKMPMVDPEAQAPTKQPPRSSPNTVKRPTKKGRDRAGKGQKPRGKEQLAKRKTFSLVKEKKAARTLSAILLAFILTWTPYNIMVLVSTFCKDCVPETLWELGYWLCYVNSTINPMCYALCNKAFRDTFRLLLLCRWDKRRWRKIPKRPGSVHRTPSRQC
Procedure: as §1
Cloned human M1 receptor (CHRM1) was stably expressed in HEK293 cells and were grown and maintained in a monolayer culture with DMEM/High Glucose (Life Technologies) supplemented with 10% Fetal Bovine Serum, 1× Pen-Strep, and 0.5 mg/mL Geneticin in a humidified atmosphere (5% CO2) at 37° C. The cultures were grown to 90% confluency in T150 flasks (Corning) and washed with 1×DPBS and lifted with 0.05% Trypsin (Life Technologies). The cells were then spun (1K rpm, 3 minutes) and frozen using Recovery Cell Culture Freezing Media (Gibco Technologies). Cells were stored in liquid nitrogen and thawed a day before the assay.
Prior to the day of the assay, stable HEK293 M1 cells were thawed and plated on 384 well black walled clear bottom TC treated plates (Greiner Cat #781091) at 25K cells/well with DMEM/High Glucose supplemented with 10% FBS (Hyclone) Pen-Strep (Life Technologies) and kept overnight in a humidified atmosphere (5% CO2) at 37° C. The following day, cells were loaded with 20 uL Ca^++ dye (BD Biosciences) using Loading Buffer (HBSS +Ca/+Mg, 20 mM HEPES) and placed back in cell incubator for a minimum of 1 hour. The dye was replaced with 45 μL Assay Buffer (HBSS −Ca/−Mg, 20 mM HEPES) and kept at room temperature prior to running on cell imager. Compounds were prepared in Assay Buffer and 5 uL was added to the cells. The FDSS 7000EX (Hamamatsu) was used to acquire Ca++ traces for 3 minutes from cells treated with 11 point dose in triplicate in order to generate dose response curves in agonist mode. All compounds were serially diluted in DMSO then prepared in Assay Buffer for Ca^++ flux studies. The dose response curves were generated from the average of triplicate wells obtained from each data point and used a non-linear regression of four parameter dose response algorithm. The Percent Activity (PA) was measured to EC100 of Carbachol.

| Structure (SMILES) | M4 FDSS PA [1] [%] | EC50 [1] [nM] | M1 FDSS PA [2] [%] | EC50 [2] [nM] | M4 FDSS PA ([1]; citrate salt) [%] | EC50 ([1]; citrate salt) [nM] |
| --- | --- | --- | --- | --- | --- | --- |
| CC(C)(O)CCOc1ccccc1C1CCN([C@@H]2CCC3(C2)CN(C(=O)C2(F)CC2)C3)CC1 (single isomer, unassigned) [Example 7BB, (R)-(1-fluorocyclopropyl)(6-(4-(2-(3-hydroxy-3-methylbutoxy)phenyl)piperidin-1-yl)-2-azaspiro[3.4]octan-2-yl)methanone or (S)-(1-fluorocyclopropyl)(6-(4-(2-(3-hydroxy-3-methylbutoxy)phenyl)piperidin-1-yl)-2-azaspiro[3.4]octan-2-yl)methanone] | 38 | 2 | 55 | 13 |  |  |
| COC(C)(C)CCOc1ccccc1C1CCN([C@@H]2CCC3(C2)CN(C(=O)C2(F)CC2)C3)CC1 (single isomer, unassigned) [Example 7FF, (R)-(1-fluorocyclopropyl)(6-(4-(2-(3-methoxy-3-methylbutoxy)phenyl)piperidin-1-yl)-2-azaspiro[3.4]octan-2-yl)methanone or (S)-(1-fluorocyclopropyl)(6-(4-(2-(3-methoxy-3-methylbutoxy)phenyl)piperidin-1-yl)-2-azaspiro[3.4]octan-2-yl)methanone] | 38 | 5 | 7 | 182 |  |  |
| O=C(C1COC1)N1CC2(CC[C@H](N3CCC(c4ccccc4OC(F)F)CC3)C2)C1.O=C(O)CC(O)(CC(=O)O)C(=O)O (single isomer, unassigned) [Example 8E, (S)-(6-(4-(2-(difluoromethoxy)phenyl)piperidin-1-yl)-2-azaspiro[3.4]octan-2-yl)(oxetan-3-yl)methanone or (R)-(6-(4-(2-(difluoromethoxy)phenyl)piperidin-1-yl)-2-azaspiro[3.4]octan-2-yl)(oxetan-3-yl)methanone citrate salt] |  |  |  |  | 61 | 2 |
| O=C(C1COC1)N1CC2(CC[C@H](N3CCC(c4ccccc4OC(F)F)CC3)C2)C1.O=C(O)CC(O)(CC(=O)O)C(=O)O (single isomer, unassigned) [Example 8F, (S)-(6-(4-(2-(difluoromethoxy)phenyl)piperidin-1-yl)-2-azaspiro[3.4]octan-2-yl)(oxetan-3-yl)methanone or (R)-(6-(4-(2-(difluoromethoxy)phenyl)piperidin-1-yl)-2-azaspiro[3.4]octan-2-yl)(oxetan-3-yl)methanone citrate salt] |  |  |  |  | 10 | 1110 |

Second part, led by results:

| M4 FDSS PA [1] [%] | EC50 [1] [nM] | M1 FDSS PA [2] [%] | EC50 [2] [nM] | Structure (SMILES) | M4 FDSS PA ([1]; citrate salt) [%] | EC50 ([1]; citrate salt) [nM] |
| --- | --- | --- | --- | --- | --- | --- |
| 81 | 1 | 69 | 302 | O[C@H]1CC[C@@H](c2ccccc2C2CCN([C@@H]3CCC4(C3)CN(c3nnco3)C4)CC2)CC1 (single isomer, unassigned) [Example 2N, (1S,4s)-4-(2-(1-((R)-2-(1,3,4-oxadiazol-2-yl)-2-azaspiro[3.4]octan-6-yl)piperidin-4-yl)phenyl)cyclohexan-1-ol or (1R,4r)-4-(2-(1-((R)-2-(1,3,4-oxadiazol-2-yl)-2-azaspiro[3.4]octan-6-yl)piperidin-4-yl)phenyl)cyclohexan-1-ol] |  |  |
| 89 | < 0.4 | 77 | 81 | OC1CCC(c2ccccc2C2CCN([C@@H]3CCC4(C3)CN(c3nnco3)C4)CC2)CC1 (single isomer, unassigned) [Example 2O, (1s,4r)-4-(2-(1-((R)-2-(1,3,4-oxadiazol-2-yl)-2-azaspiro[3.4]octan-6-yl)piperidin-4-yl)phenyl)cyclohexan-1-ol or (1r,4r)-4-(2-(1-((R)-2-(1,3,4-oxadiazol-2-yl)-2-azaspiro[3.4]octan-6-yl)piperidin-4-yl)phenyl)cyclohexan-1-ol] |  |  |
| 54 | 11 | 57 | 139 | O=C(N1CC2(CC[C@@H](N3CCC(c4ccccc4OCCC(F)(F)F)CC3)C2)C1)C1(F)CC1 (single isomer, unassigned) [Example 7AA, (R)-(1-fluorocyclopropyl)(6-(4-(2-(3,3,3-trifluoropropoxy)phenyl)piperidin-1-yl)-2-azaspiro[3.4]octan-2-yl)methanone or (S)-(1-fluorocyclopropyl)(6-(4-(2-(3,3,3-trifluoropropoxy)phenyl)piperidin-1-yl)-2-azaspiro[3.4]octan-2-yl)methanone] |  |  |
| 50 | 1 | 84 | 10 | O=C(N1CC2(CC[C@@H](N3CCC(c4ccccc4OCc4ncccn4)CC3)C2)C1)C1(F)CC1 (single isomer, unassigned) [Example 7M, (R)-(1-fluorocyclopropyl)(6-(4-(2-(pyrimidin-2-ylmethoxy)phenyl)piperidin-1-yl)-2-azaspiro[3.4]octan-2-yl)methanone or (S)-(1-fluorocyclopropyl)(6-(4-(2-(pyrimidin-2-ylmethoxy)phenyl)piperidin-1-yl)-2-azaspiro[3.4]octan-2-yl)methanone] |  |  |
| 68 | 1 | 45 | 22 | O=C(N1CC2(CC[C@@H](N3CCC(c4ccccc4OCCO)CC3)C2)C1)C1(F)CC1 (single isomer, unassigned) [Example 7N, (R)-(1-fluorocyclopropyl)(6-(4-(2-(2-hydroxyethoxy)phenyl)piperidin-1-yl)-2-azaspiro[3.4]octan-2-yl)methanone or (S)-(1-fluorocyclopropyl)(6-(4-(2-(2-hydroxyethoxy)phenyl)piperidin-1-yl)-2-azaspiro[3.4]octan-2-yl)methanone] |  |  |
